Measurements: patent US7091199B1, “Thienoisoxazole phenoxy unsubstituted ethyl and propyl derivatives useful as d4 antagonists” (Aventis Pharmaceuticals Inc., priority 1999, dated 2006)
Counter-ions that a name gives are not always drawn. One block for each compound: values may come before it.

Assays:
[1] = target: T1, human D4 receptor (D4.2 sub-type) (Homo sapiens, UniProt P21917, DEL271-302); experiment: D4 receptor binding assay (3H-spiperone displacement); settings: for Ki: 3H-spiperone 0.25 nM, HEK cell membranes, human D4.2, read-out: D4 RBA Ki
T1 sequence (P21917 with tags, fused parts or gaps DEL271-302): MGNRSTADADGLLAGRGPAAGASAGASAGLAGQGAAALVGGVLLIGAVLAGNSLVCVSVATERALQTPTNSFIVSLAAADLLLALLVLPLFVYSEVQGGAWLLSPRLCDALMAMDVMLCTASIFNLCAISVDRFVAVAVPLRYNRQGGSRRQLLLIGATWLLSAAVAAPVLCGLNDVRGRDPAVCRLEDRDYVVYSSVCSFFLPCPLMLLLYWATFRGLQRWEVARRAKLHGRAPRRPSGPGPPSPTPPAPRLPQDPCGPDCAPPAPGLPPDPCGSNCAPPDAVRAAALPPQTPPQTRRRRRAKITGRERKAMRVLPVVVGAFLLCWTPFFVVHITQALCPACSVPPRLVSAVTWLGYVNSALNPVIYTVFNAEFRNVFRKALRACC
Experimental: D4 receptor-binding affinities of the compounds were evaluated according to their ability to reduce binding of ^3H-spiperone as compared to the reference compound clozapine. The potency of the test compound to reduce ^3H-spiperone binding directly correlated to its binding affinity for the receptor.
[…] (human embryonic kidney) cells stably transfected with human D4 receptor (D4.2 sub-type) were grown in NUNC cell factories for 5 days (75% confluency) without a media change and removed with versene (approximately 19 mg of cells per cell factory tray). The cells were then centrifuged in a Sorval centrifuge for 10 min, 5000 rpm (GS3 rotor) and the pellets quickly frozen in liquid nitrogen and stored at −80° C. until used in binding assay. When used in the assay, cells were thawed on ice for 20 min and then 10 mL of incubation buffer (50 mM Tris, 1 mM EDTA, 4 mM MgCl2, 5 mM KCl, 1.5 mM CaCl2, 120 mM NaCl, pH 7.4) was added. The cells were then vortexed to resuspend pellet and homogenized with a Kinematica, CH-6010 Kriens-LU, homogenizer for 15 seconds at setting 7. Concentration of receptor protein was determined using the Pierce BCA assay.
The incubation was started by the addition of 100 μl (50 μg protein) membrane homogenate to a solution of 300 μl incubation buffer and 100 μl (0.25 nM final conc.) ^3H-spiperone (90 Ci/mmol, Amersham, diluted in borosilicate glass vial) in 96-well polypropylene plates (1 mL per well). The plates were vortexed and incubated at room temperature for 90 minutes. The binding reaction was stopped by filtering using a Packard Harvester. The samples were filtered under vacuum over glass fibre filter plates (Whatman GF/B) presoaked for 2 hours in 0.3% polyethylenimine (PEI) in 50 mM Tris buffer (pH 7.4). The filters were then washed 6 times with 7 mL ice cold 50 mM Tris buffer (pH 7.4). The filter plates were dried overnight and 35 μl of Microscint-O (Packard) was added. The plates were sealed and counted in the Packard Top Count (3 minutes per well).
The incubation was started by the addition of 100 μl (50 μg protein) membrane homogenate to a solution of 200 μl incubation buffer, 100 μl ^3H-spiperone (90 Ci/mmol, Amersham, diluted in borosilicate glass vial to 0.25 nM final conc.) and 100 μl (30 μM final conc.) of fresh dopamine (Research Biochemicals Inc., light protected and dissolved in incubation buffer) in 96-well polypropylene plates (1 mL per well). The plates were vortexed and incubated at room temperature for 90 minutes at which time the binding reaction was stopped by filtering. The filters were washed and counted using the same procedure as in the total binding assay described above to give the non-specific binding value (NSB).
The incubation was started by the addition, in 96-well polypropylene plates (1 mL per well), of 100 μl (50 μg protein) membrane homogenate to a solution of 200 μl incubation buffer, 100 μl (0.25 nM final conc.) ^3H-spiperone (90 Ci/mmol, Amersham, diluted in borosilicate glass vial) and 100 μl of test compound that was prepared from 1 mM stock dissolved in DMSO and stored at −20° C. in polypropylene cryogenic storage vials until dilution in incubation buffer in 96-well polypropylene plates. The plates were vortexed and incubated at room temperature for 90 minutes at which time the binding reaction was stopped by filtering. The filters were washed and counted using the same procedure as in the total binding assay described above to give the displacement binding value (BD).
The test compounds were initially assayed at 1 and 0.1 μM and then at a range of concentrations chosen such that the middle dose would cause about 50% inhibition of ^3H-spiperone binding. Specific binding in the absence of test compound (B0) was the difference of total binding (BT) minus non-specific binding (NSB) and similarly specific binding (in the presence of test compound) (B) was the difference of displacement binding (BD) minus non-specific binding (NSB). […]

[2] = system: CD-1 or C57 male mice (MK-801 induced stereotypy); experiment: MK-801 Stereotypy in Mice; assay type: in vivo
Experimental: Mk-801 dose-dependently induces characteristic stereotypy marked by locomotion and falling behavior. This MK-801 induced behavior can be antagonized by novel neuroleptic agents. This assay can also assess time course effects following drug administration.
CD-1 or C57 male mice are individually placed in activity boxes (8 mice/drug) and allowed to acclimate for 60 minutes. The mice are then administered test compounds either i.p., s.c., or p.o., at 15, 30, or 60 minutes prior to MK-801 (0.2 mg/kg) administration. Mice are observed for the presence of locomotion and falling behaviors 15 minutes following MK-801. For the duration of action studies the test compounds are administered i.p., s.c., or p.o., at 30, 60, 120, 180, and 240 minutes prior to MK-801 administration.

[3] = target: human D4 receptor with seven repeat units (D4.7 variant); settings: read-out: EC50 of dopamine; cited from earlier work
D4.2 variant = settings: read-out: EC50 of dopamine; cited from earlier work

Ki [1]: 12 nM
melting point: 195 to 197 °C
Compound: Cl.c1ccc(CNCCCOc2cccc(-c3noc4ccsc34)c2)cc1 [Compound 1, benzyl-[3-(3-theino[2,3-d]isoxazol-3-yl-phenoxy)-propyl]-amine hydrochloride]
ED50 ([2]; Mus musculus, PO, MK-801 stereotypy, read-out: In Vivo ED50): 14.6 mg/kg

inhibition at 1 µM ([1]; @ 1 μM test compound, 3H-spiperone binding, read-out: D4 RBA % Inhibition (@ 1 μM)): 100%
Compound: c1ccc(CNCCOc2cccc(-c3noc4ccsc34)c2)cc1 [Compound 31, benzyl-[2-(3-thieno[2,3-d]isoxazol-3-yl-phenoxy)-ethyl]-amine hydrochloride]
inhibition in vivo at 20 mg/kg ([2]; Mus musculus, po, 20 mg/kg, read-out: Antag. of MK 801 Stereotypy % Inhib. @ 20 mg/kg): 37.5%

Ki [1]: 10.5 nM
Compound: Fc1cccc(CNCCOc2cccc(-c3noc4ccsc34)c2)c1.O=C(O)/C=C\C(=O)O [Compound 32, (3-fluoro-benzyl)-[2-(3-thieno[2,3-d]isoxazol-3-yl-phenoxy)-ethyl]-amine maleate]
Antag. of MK 801 Stereotypy % Inhib. @ 20 mg/kg ([2]; PO, 20 mg/kg): 62.5%

Compound: NCCc1ccc(O)c(O)c1 [dopamine]
EC50 [3]: 40 nM
EC50 (D4.2 variant): 15 nM
